Article doi:10.1101/2023.05.15.540887, “Comparative analysis of drug-like EP300/CREBBP acetyltransferase inhibitors” (bioRxiv, 2023)
Where two headings read alike, the source gives them in different places.

Assays:
[1] = system: histone H3 acetylation in MCF-7 cells; assay: Western blot analysis of histone acetylation (H3K18Ac, H3K27Ac, H3K23Ac) in MCF-7 cells; type: cell-based, human; details: 3 h, 8 nM – 5 μM, compared among 1-3
Procedure: Next, we sought to quantitatively benchmark the properties of 1-3 in living cells. EP300 and CREBBP modify a wide variety of substrates in biochemical experiments and upon ectopic overexpression.[2] However, two well-characterized cellular histone lysine substrates of these enzymes are H3K18 and H3K27.[26] Even though H3K18Ac is the more abundant of the two markers, H3K27Ac is also of great interest due to its association with active enhancer regions. […] Cells were treated with escalating doses of 1-3 and harvested at 3 h to avoid overt cytotoxicity and allow the direct effects on acetylation to be observed (Fig. 3a). […] Control experiments indicated levels of H3K23Ac, which is not regulated by EP300/CREBBP, were not affected.
MCF-7 cells were plated in 1700 µL culture medium at 1 x 10^6 cells per well in 6-well dishes. After 16-24 h cells were treated with 300 µL of 1-3-containing media to yield a final concentration of 8 nM, 40 nM, 200 nM, 1 µM, or 5 µM EP300/CREBBP inhibitor (0.1% final concentrations of DMSO). Controls were treated with vehicle DMSO (0.1%). […]
Histone samples were quantified using the Precision Red Protein Assay (Cytoskeleton #ADV02). […]

CCRF-CEM = assay: NCI-60 growth inhibition (sulforhodamine B); type: cell-based, human; details: CCRF-CEM (Leukemia), negative log of Molar conc., LCONC -8
EKVX = assay: NCI-60 growth inhibition (sulforhodamine B); type: cell-based, human; details: EKVX (Non-Small Cell Lung Cancer), negative log of Molar conc., LCONC -8
NCI-H522 = assay: NCI-60 growth inhibition (sulforhodamine B); type: cell-based, human; details: NCI-H522 (Non-Small Cell Lung Cancer), negative log of Molar conc., LCONC -8
HT29 = assay: NCI-60 growth inhibition (sulforhodamine B); type: cell-based, human; details: HT29 (Colon Cancer), negative log of Molar conc., LCONC -8
SF-268 = assay: NCI-60 growth inhibition (sulforhodamine B); type: cell-based, human
SF-539 = assay: NCI-60 growth inhibition (sulforhodamine B); type: cell-based, human; details: SF-539 (CNS Cancer), negative log of Molar conc., LCONC -8
SK-OV-3 = assay: NCI-60 growth inhibition (sulforhodamine B); type: cell-based; details: Homo sapiens, SK-OV-3, Ovarian Cancer, negative log of Molar value, LCONC -8, EXPID 2301NS84
UO-31 = assay: NCI-60 growth inhibition (sulforhodamine B); type: cell-based; details: Homo sapiens, UO-31, Renal Cancer, negative log of Molar value, LCONC -8, EXPID 2301NS84
M14 = assay: cells; details: Homo sapiens
[2] = Homo sapiens, read-out: LC50 NLOGVALUE
[3] = Homo sapiens, read-out: GI50 NLOGVALUE (converted)
[4] = Homo sapiens, read-out: IC50 NLOGVALUE

With `C[C@H](CN[C@@H](C(=O)Nc1ccc(-c2cnn(C)c2)cn1)c1ccccc1)c1ccc(C#N)cc1` [CPI-1612] the “inhibition of histone acetylation (H3K18Ac, H3K27Ac), Western blot” value [1] was “most potent activity”, the “TGI NLOGVALUE” (CCRF-CEM) was 4 and the GI50 (CCRF-CEM; Homo sapiens, read-out: GI50 NLOGVALUE) was under 10 nM. For the same compound, the IC50 (CCRF-CEM; Homo sapiens, read-out: IC50 NLOGVALUE (converted)) was 135 nM, the CC50 (CCRF-CEM; [2]) was over 100000 nM and the “TGI NLOGVALUE” (EKVX) was 4. It also gave a GI50 (EKVX; [3]) of 1510 nM, an IC50 (EKVX; [4]) of over 100000 nM and a GI50 (NCI-H522; [3]) of 115 nM. The IC50 (NCI-H522; [4]) was over 100000 nM, the “TGI NLOGVALUE” (NCI-H522) was 4 and the “TGI NLOGVALUE” (HT29) was 4. The GI50 (HT29; Homo sapiens, HT-29, read-out: GI50 NLOGVALUE (converted)) was 49 nM, the IC50 (HT29; Homo sapiens, HT-29, read-out: IC50 NLOGVALUE (converted)) was 437 nM and the GI50 (SF-268; Homo sapiens, SF-268, read-out: GI50 AVGDATA (converted)) was 676 nM. The GI50 (SF-268; Homo sapiens, SF-268 (CNS Cancer), negative log of Molar conc., LCONC -8, read-out: GI50 NLOGVALUE (converted)) was 692 nM, the IC50 (SF-268; Homo sapiens, SF-268 (CNS Cancer), negative log of Molar conc., LCONC -8, read-out: IC50 NLOGVALUE (converted)) was 79400 nM and the CC50 (SF-268; Homo sapiens, SF-268 (CNS Cancer), negative log of Molar conc., LCONC -8, read-out: LC50 NLOGVALUE) was over 100000 nM. The “TGI NLOGVALUE” (SF-268; SF-268 (CNS Cancer), negative log of Molar conc., LCONC -8) was 4, the GI50 (SF-539; [3]) was 2090 nM and the IC50 (SF-539; [4]) was over 100000 nM. For the same compound, the CC50 (SF-539; [2]) was over 100000 nM, the “TGI NLOGVALUE” (SF-539) was 4 and the GI50 (SK-OV-3; read-out: GI50 NLOGVALUE) was over 100000 nM. The IC50 (SK-OV-3; read-out: IC50 NLOGVALUE) was over 100000 nM, the CC50 (SK-OV-3; read-out: LC50 NLOGVALUE) was over 100000 nM and the GI50 (UO-31; read-out: GI50 NLOGVALUE) was under 10 nM. It also gave an IC50 (UO-31; read-out: IC50 NLOGVALUE (converted)) of 28.2 nM, a CC50 (UO-31; read-out: LC50 NLOGVALUE) of over 100000 nM and a GI50 (M14; M14, read-out: GI50 NLOGVALUE) of 21.4 nM. The IC50 (M14; M14, read-out: IC50 NLOGVALUE) was 44700 nM and the CC50 (M14; M14, read-out: LC50 NLOGVALUE) was over 100000 nM.
